Reference: patent US8420642B2, “Pyridine derivatives useful as glucokinase activators” (Merck Patent GmbH, priority 2007, dated 2013)

Columns and labels:
[1] = target: T1, glucokinase (GK), human enzyme (Homo sapiens, UniProt P35557); assay: Glucokinase Activation Screening Assay (coupled enzyme assay with PK/LDH, NADH decline at 340 nm); assay type: biochemical; details: for fold activation (human): relative to control incubation with 2 mM glucose; for EC50: 2 mM glucose
T1 sequence (P35557 1-465): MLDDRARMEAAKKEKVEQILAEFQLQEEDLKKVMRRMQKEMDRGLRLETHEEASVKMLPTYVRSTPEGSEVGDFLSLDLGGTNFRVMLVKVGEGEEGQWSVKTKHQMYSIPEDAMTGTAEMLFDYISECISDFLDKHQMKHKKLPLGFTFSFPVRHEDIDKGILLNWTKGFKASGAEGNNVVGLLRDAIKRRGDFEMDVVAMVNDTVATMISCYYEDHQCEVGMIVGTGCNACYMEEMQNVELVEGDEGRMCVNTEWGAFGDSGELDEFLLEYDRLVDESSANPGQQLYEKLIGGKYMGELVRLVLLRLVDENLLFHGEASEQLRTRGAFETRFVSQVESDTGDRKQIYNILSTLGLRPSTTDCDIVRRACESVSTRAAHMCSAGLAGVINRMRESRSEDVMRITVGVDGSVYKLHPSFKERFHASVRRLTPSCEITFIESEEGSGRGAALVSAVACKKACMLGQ
Procedure: Glucokinase Activation Screening Assay
GK activity (human or rat enzyme) is measured by an coupled enzyme assay using pyruvate kinase (PK) and lactate dehydrogenase (LDH) as coupling enzymes. GK activity is calculated from the decline in NADH monitored photometrically with a microtiter plate (MTP) reader at 340 nm. For screening purposes, the GK assay is routinely run in a 384-MTP format, in a total volume of 33 μl/well. 10 μl of the ATP-regeneration solution (in HEPES-buffer*, pH 7.0, 6.73 U/ml pyruvate kinase, 6.8 U/ml lactate dehydrogenase) and 10 μl of the glucokinase-/glucose solution (15 μg/ml, 6.6 mM glucose in HEPES-buffer*, pH 7.0; the concentration of the glucose stock-solution was 660 mM in Millipore H2O) were mixed together with 3 μl of a 10% DMSO solution (in HEPES-buffer*, pH 7.0) containing 3.3-fold the amounts of the compounds to achieve final compound concentrations in the range between 1 nM to 30 μM (sometimes 300 μM) in the assay solution (s. below). The solutions were mixed for 5 sec, and after a centrifugation at 243×g for 5 min, the solutions were preincubated for 25 min at room temperature.
The reaction was started by the addition of 10 μl of the NADH-/ATP-solution (4.29 mM NADH, 4.95 mM ATP, in HEPES-buffer*). The MTP was shaken for 5 sec., and then, the absorbance at 340 nm was monitored continuously in a MTP-reader (TECAN Spectro fluor plus) for the next 27 min (with a MTP-cycling time of 199 sec.). The final concentrations of the various components were as follows: 49.5 mM Hepes, pH 7.0, 1.49 mM PEP, 1.3 mM NADH, 49.5 mM KCl, 4.96 mM MgCl2, 1.5 mM Mg-ATP, 1.98 mM DTT, 2.04 U/ml pyruvate kinase, 2.06 U/ml lactate-dehydrogenase, 0.91% DMSO, 0.15 μg/well glucokinase, and test compounds in the range between 1 nM and 300 μM.
The change in the optical density (ΔOD340 nm) in the presence of the compound was expressed relative to the ΔOD340 nm, ctrl of the control incubation (in the presence of 2 mM glucose and 0.91% DMSO), taking into account the optical density of the blank sample (incubation in the absence of 2 mM glucose). For the determination of the half maximal effective concentration (EC50), the %−Ctrl-values were plotted in a semi-logarithmic graph against the conc. of the compound of interest. The data points were fitted to a sigmoid curve function (f(x)=((%−Ctrlmax%−Ctrlmin)/(1−(EC50/x**^n(Hill)))+%−Ctrlmin)) by a non-linear regression analysis.
* Hepes-buffer (50 mM Hepes, pH 7.0, 5 mM MgCl2, 50 mM KCl, 1.5 mM PEP, 0.1% BSA). DTT was added to the Hepes-buffer from a 200× stock solution (in Millipore H2O) freshly each day. The final concentration of DTT in the Hepes-buffer is 2 mM.

Compound	fold activation (human) [1]	melting point [°C]	EC50 [1] [µM]
OCc1csc(Nc2ccc(Br)cn2)n1 [A6, [2-(5-bromo-pyridine-2-ylamino)-thiazole-4-yl]-methanol]	D (fold activation: 1.2-5 μM = D)	207 to 209	–
CCCOc1ccc(Nc2ccn(C)n2)nc1 [A23, (1-methyl-1H-pyrazole-3-yl)-(5-propoxy-pyridine-2-yl)-amine]	D (fold activation: 1.2-5 μM = D)	–	–
OCc1csc(Nc2ccc(Oc3ccccc3)cn2)n1 [A10, [2-(5-phenoxy-pyridine-2-ylamino)-thiazole-4-yl]-methanol]	E (5-10 μM = E)	130 to 131	1 to 10
CC(=O)OCc1csc(Nc2ccc(Oc3ccccc3)cn2)n1 [A9, acetic acid 2-(5-phenoxy-pyridine-2-ylamino)-thiazole-4-ylmethyl ester]	D (fold activation: 1.2-5 μM = D)	158.5 to 160.5	> 10
CCOC(=O)c1csc(Nc2ccc(Br)cn2)n1 [A4, 2-(5-bromo-pyridine-2-ylamino)-thiazole-4-carboxylic acid ethyl ester]	D (fold activation: 1.2-5 μM = D)	299.8 to 300.8	–
CC(=O)OCc1csc(Nc2ccc(Br)cn2)n1 [A5, acetic acid 2-(5-bromo-pyridine-2-ylamino)-thiazole-4-ylmethyl ester]	D (fold activation: 1.2-5 μM = D)	200.9 to 201.6	1 to 10
c1ccc(COc2ccc(Nc3nccs3)nc2)cc1 [A30, (5-benzyloxy-pyridine-2-yl)-thiazole-2-yl-amine]	D (fold activation: 1.2-5 μM = D)	–	–
[O-][S+](c1ccccc1)c1ccc(Nc2nccs2)nc1 (centres unmarked) [A13, (5-phenylsulfinyl-pyridine-2-yl)-thiazole-2-yl-amine]	D (fold activation: 1.2-5 μM = D)	–	–
Cc1csc(Nc2ccc(Br)cn2)n1 [A1, (5-bromo-pyridine-2-yl)-(4-methyl-thiazole-2-yl)-amine]	D (fold activation: 1.2-5 μM = D)	241.5 to 242.6	–
O=S(=O)(c1ccccc1)c1ccc(Nc2nccs2)nc1 [A14, (5-phenylsulfonyl-pyridine-2-yl)-thiazole-2-yl-amine]	D (fold activation: 1.2-5 μM = D)	–	> 10
Brc1ccc(Nc2nc(Cn3ccnc3)cs2)nc1 [A3, (5-bromo-pyridine-2-yl)-(4-imidazole-1-ylmethyl-thiazole-2-yl)-amine]	D (fold activation: 1.2-5 μM = D)	–	1 to 10
c1ccc(Sc2ccc(Nc3nccs3)nc2)cc1 [A12, (5-phenylsulfanyl-pyridine-2-yl)-thiazole-2-yl-amine]	D (fold activation: 1.2-5 μM = D)	–	> 10
NCCSCc1csc(Nc2ccc(Br)cn2)n1 [A7, [4-(2-amino-ethylsulfanylmethyl)-thiazole-2-yl]-(5-bromopyridine-2-yl)-amine]	D (fold activation: 1.2-5 μM = D)	–	> 10
BrCc1csc(Nc2ccc(Br)cn2)n1 [A2, (4-bromomethyl-thiazole-2-yl)-(5-bromo-pyridine-2-yl)-amine]	D (fold activation: 1.2-5 μM = D)	–	1 to 10

Second part, the compound after the results:

fold activation (human) [1]	melting point [°C]	EC50 [1] [µM]	Compound
D (fold activation: 1.2-5 μM = D)	–	–	COCCOc1cc(Oc2ccccc2)cnc1Nc1ccccn1 [A96]
E (5-10 μM = E)	–	0.01 to 1	c1ccc(Oc2cnc(Nc3nccs3)c(OC3CCCC3)c2)cc1 [A21, (3-cyclopentyloxy-5-phenoxy-pyridine-2-yl)-thiazole-2-yl-amine]
D (fold activation: 1.2-5 μM = D)	–	–	COCCOc1cc(Oc2ccccc2)cnc1Nc1cnccn1 [A95]
E (5-10 μM = E)	–	–	COCCOc1cc(Oc2cccnc2)cnc1Nc1nccs1 [A31, [3-(2-methoxy-ethoxy)-5-(pyridine-3-yloxy)-pyridine-2-yl]-thiazole-2-yl-amine]
E (5-10 μM = E)	–	–	COCCOc1cc(Oc2ccccc2)cnc1Nc1ccn(C)n1 [A97]
E (5-10 μM = E)	–	1 to 10	COCC(C)Oc1cc(Oc2ccccc2)cnc1Nc1nccs1 (centres unmarked) [A28, [3-(2-Methoxy-1-methyl-ethoxy)-5-phenoxy-pyridine-2-yl]-thiazole-2-yl-amine]
D (fold activation: 1.2-5 μM = D)	161.4 to 162.4	> 10	c1ccc(Oc2ccc(Nc3nccs3)nc2)cc1 [A8, (5-phenoxy-pyridine-2-yl)-thiazole-2-yl-amine]
D (fold activation: 1.2-5 μM = D)	–	0.01 to 1	c1ccc(Oc2cnc(Nc3nccs3)c(OCC3CCCC3)c2)cc1 [A29, (3-cyclopentylmethoxy-5-phenoxy-pyridine-2-yl)-thiazole-2-yl-amine]
E (5-10 μM = E)	140.6 to 140.9	1 to 10	COCCOc1cc(Oc2ccccc2)cnc1Nc1nccs1 [A20, [3-(2-methoxy-ethoxy)-5-phenoxy-pyridine-2-yl]-thiazole-2-yl-amine]
E (5-10 μM = E)	–	–	CS(=O)(=O)c1ccc(Oc2ccc(Nc3ccccn3)nc2)cc1 [A94]
E (5-10 μM = E)	–	1 to 10	COCCOc1cc(Oc2ccc(S(C)(=O)=O)cc2)cnc1Nc1nccs1 [A32, [5-(4-methanesulfonyl-phenoxy)-3-(2-methoxy-ethoxy)pyridine-2-yl]-thiazole-2-yl-amine]
